# Measurements reported in patent US20250235545A1, “POLYPEPTIDE CONJUGATE AND USE THEREOF” (SHANGHAI CHIXI BIOMEDICAL TECHNOLOGY CO., LTD, priority 2024, published 2025).
# Where two headings read alike, the source gives them in different places.
# Tests used:
# [1] = test system: SKBR3 (breast cancer tissue); assay: cells; type: cell-based; conditions: CCK8, 48 h; for IC50: Homo sapiens, SK-BR-3
# Description: (§1) Different types of cells were cultured with complete media (RPMI1640 (DMEM high sugar medium)+10% fetal bovine serum+1XP/S+sodium pyruvate 1 mM solution) in an incubator at 37° C. and 5% CO2 until the cells grew to a sufficient number, and the cells were collected, centrifuged at 1,000 g for 5 min, resuspended with an appropriate volume of a 10% RMPI1640 (DMEM high sugar medium) medium and counted. In a 96-well culture plate, 100 μL of cell culture fluid containing different concentrations of drugs was added, control wells (0.1% DMSO) with only corresponding drug solvents without drugs, as well as blank wells (Blank) with only the medium but without cells were set, and three parallel wells were set in each group. After that, the cells after cell counting were inoculated onto 96-well culture plates, with 100 μL of cell suspension per well, and an inoculation concentration of the cells was 5,000 cells (100 μL)/well. The plates were then cultured in a CO2 (5%) incubator at 37° C. for 48 h. After 48 h, 10 μL of a cell proliferation staining reagent (CCK8) was added to each well, the plates were incubated in a cell incubator for around 2 h, and an absorbance at 450 nm was detected.
# (§2) Cell survival rates and median inhibitory concentrations of the drugs on the cells were calculated.
# as §1, with “serum+1×P/S+sodium” for “serum+1XP/S+sodium”, “adjusted to an appropriate density.” for “counted.”
# (§3) Cell survival rates and median inhibitory concentrations (IC50) of the drugs on the cells were calculated.
# [2] = test system: A2780 (ovarian cancer); assay: cells; type: cell-based; conditions: CCK8, 48 h; for IC50: Homo sapiens, A2780
# Description: as §1, §2
# as §1, with “serum+1×P/S+sodium” for “serum+1XP/S+sodium”, “adjusted to an appropriate density.” for “counted.”
# as §3
# [3] = test system: SJSA-1 (sarcoma tissue); assay: cells; type: cell-based; conditions: CCK8, 48 h; for IC50: Homo sapiens, SJSA-1
# Description: as §1, §2
# as §1, with “serum+1×P/S+sodium” for “serum+1XP/S+sodium”, “adjusted to an appropriate density.” for “counted.”
# as §3
# [4] = test system: A549 (non-small cell lung cancer); assay: cells; type: cell-based; conditions: CCK8, 48 h; for IC50: Homo sapiens, A549
# Description: as §1, §2
# as §1, with “serum+1×P/S+sodium” for “serum+1XP/S+sodium”, “adjusted to an appropriate density.” for “counted.”
# as §3
# [5] = test system: sarcoma SJSA-1 tumor model
# Description: Test objective: To investigate the antitumor efficacy of the above compounds in an animal tumor model of sarcoma SJSA-1.
# (§4) Test drug: Polypeptide conjugate, Irinotecan, Belotecan and normal saline control group.
# (§5) Test animals: 6-8 weeks old BALB/c mice, all female.
# (§6) SJSA-1 cells were purchased from ATCC and cultured in a DMEM medium containing 10% fetal bovine serum at 37° C. in 5% CO2. Passaging was performed every three days, and cells within 15 generations were used. 2×10^7 corresponding cells were injected into right chests of nude mice subcutaneously. After a volume of the tumors reached at least 100 mm^3, the mice were grouped randomly, with three mice in each group. Then treatment was started, and the day when the treatment was started was the first day. […] The control group was administered with normal saline. Administration was performed once a week for three weeks.
# as §6
# [6] = test system: colo320 colorectal cancer tumor model
# Description: Test objective: To investigate the antitumor efficacy of the above compounds in an animal tumor model of colo320 colorectal cancer.
# as §4, §5
# as §6, with “Passaging” for “SJSA-1 cells were purchased from ATCC and cultured in a DMEM medium containing 10% fetal bovine serum at 37° C. in 5% CO2. Passaging”, “used. 7.5×10^6” for “used. 2×10^7”, “least 120” for “least 100”, “for four” for “for three”
# [7] = MTD determination in mice (Examples 27, 36, 44); type: in vivo
# Description: Test animals: 6-8 weeks old mice, all female; mice were grouped randomly, with six mice in each group, administered with drugs at different concentration gradients separately and monitored for 14 d. A mouse was euthanized at a loss of 20% of its initial weight and deemed to have died of poisoning.
# [8] = test system: colo320 (colorectal cancer tissue); assay: cells; type: cell-based; conditions: CCK8, 48 h, Table 6
# Description: as §1, with “serum+1×P/S+sodium” for “serum+1XP/S+sodium”, “adjusted to an appropriate density.” for “counted.”
# as §3
# [9] = 5 mg/kg once a week for three weeks, Table 2
# [10] = 5 mg/kg once a week for three weeks, Table 7
# [11] = 5 mg/kg once a week for four weeks, Table 3
# [12] = 5 mg/kg once a week for four weeks, Table 8
# [13] = mice, monitored for 14 d, Table 4
# [14] = mice, monitored for 14 d, Table 9
# [15] = 15 mg/kg once a week for three weeks, Table 2
# [16] = 15 mg/kg once a week for three weeks, Table 7
# [17] = 15 mg/kg once a week for four weeks, Table 3
# [18] = 15 mg/kg once a week for four weeks, Table 8
# [19] = Table 13 (Example 42), dose 15 mg/kg, once a week for four weeks, BALB/c mice
# [20] = Table 14 (Example 43), dose 15 mg/kg, once a week for four weeks, BALB/c mice
compound,measurement,setting,value
CC[C@@]1(O)C(=O)OCc2c1cc1n(c2=O)Cc2c-1nc1ccccc1c2CCNC1CC1 [D6],IC50 SKBR3 (breast cancer tissue),[1]; Table 1,0.0038 µg/mL
same,IC50 Breast cancer tissue (SKBR3),[1]; Table 6,0.0038 µg/mL
same,IC50 A2780 (ovarian cancer),[2]; Table 1,0.0029 µg/mL
same,IC50 Ovarian cancer tissue (A2780),[2]; Table 6,0.0029 µg/mL
same,IC50 SJSA-1 (sarcoma tissue),[3]; Table 1,0.0018 µg/mL
same,IC50 Sarcoma tissue (SJSA-1),[3]; Table 6,0.0018 µg/mL
same,IC50 A549 (non-small cell lung cancer),[4]; Table 1,0.0025 µg/mL
same,IC50 Non-small cell lung cancer tissue (A549),[4]; Table 6,0.0025 µg/mL
same,Mouse weight (%),[5]; [9],+4%
same,SJSA-1 (sarcoma tissue) mean tumor volume (mm^3),[5]; [9],961.3 mm^3
same,SJSA-1 (sarcoma) Growth rate (%),[5]; [9],828.71%
same,Mouse weight (%),[5]; [10],+4%
same,SJSA-1 (sarcoma tissue) growth rate (%),[5]; [10],831.80%
same,SJSA-1 (sarcoma tissue) mean tumor volume (mm^3),[5]; [10],961.3 mm^3
same,Mouse weight (%),[6]; [11],−4%
same,colo320 (colorectal cancer cell) growth rate (%),[6]; [11],715.73%
same,colo320 (colorectal cancer cell) mean tumor volume (mm^3),[6]; [11],787.3 mm^3
same,Mouse weight (%),[6]; [12],−4%
same,colo320 (colorectal cancer cell) growth rate (%),[6]; [12],710.84%
same,colo320 (colorectal cancer cell) mean tumor volume (mm^3),[6]; [12],787.3 mm^3
same,MTD,[7]; [13],10 mg/kg
same,MTD,[7]; [14],10 mg/kg
same,IC50 Colorectal cancer tissue (colo320),[8],0.0048 µg/mL
CC[C@@]1(O)C(=O)OCc2c1cc1n(c2=O)Cc2c-1nc1ccccc1c2CCNC1CCCC1 [D8],IC50 SKBR3 (breast cancer tissue),[1]; Table 1,0.047 µg/mL
same,IC50 Breast cancer tissue (SKBR3),[1]; Table 6,0.047 µg/mL
same,IC50 A2780 (ovarian cancer),[2]; Table 1,0.015 µg/mL
same,IC50 Ovarian cancer tissue (A2780),[2]; Table 6,0.015 µg/mL
same,IC50 SJSA-1 (sarcoma tissue),[3]; Table 1,0.035 µg/mL
same,IC50 Sarcoma tissue (SJSA-1),[3]; Table 6,0.035 µg/mL
same,IC50 A549 (non-small cell lung cancer),[4]; Table 1,0.016 µg/mL
same,IC50 Non-small cell lung cancer tissue (A549),[4]; Table 6,0.016 µg/mL
same,Mouse weight (%),[5]; [9],+12%
same,SJSA-1 (sarcoma tissue) mean tumor volume (mm^3),[5]; [9],1497.5 mm^3
same,SJSA-1 (sarcoma) Growth rate (%),[5]; [9],1295.77%
same,Mouse weight (%),[5]; [10],+12%
same,SJSA-1 (sarcoma tissue) growth rate (%),[5]; [10],1295.77%
same,SJSA-1 (sarcoma tissue) mean tumor volume (mm^3),[5]; [10],1497.5 mm^3
same,Mouse weight (%),[6]; [11],−6%
same,colo320 (colorectal cancer cell) growth rate (%),[6]; [11],1082.65%
same,colo320 (colorectal cancer cell) mean tumor volume (mm^3),[6]; [11],1199.1 mm^3
same,Mouse weight (%),[6]; [12],−6%
same,colo320 (colorectal cancer cell) growth rate (%),[6]; [12],1082.65%
same,colo320 (colorectal cancer cell) mean tumor volume (mm^3),[6]; [12],1199.1 mm^3
same,MTD,[7]; [13],25 mg/kg
same,MTD,[7]; [14],25 mg/kg
same,IC50 Colorectal cancer tissue (colo320),[8],0.042 µg/mL
"CCc1c2c(nc3ccc(OC(=O)N4CCC(N5CCCCC5)CC4)cc13)-c1cc3c(c(=O)n1C2)COC(=O)[C@]3(O)CC [Irinotecan, reference compound]",IC50,"[1]; Table 1, read-out: IC50 SKBR3 (breast cancer tissue)",0.25 µg/mL
same,IC50,"[1]; Table 6, read-out: IC50 Breast cancer tissue (SKBR3)",0.25 µg/mL
same,IC50,"[2]; Table 1, read-out: IC50 A2780 (ovarian cancer)",0.16 µg/mL
same,IC50,"[2]; Table 6, read-out: IC50 Ovarian cancer tissue (A2780)",0.16 µg/mL
same,IC50,"[3]; Table 1, read-out: IC50 SJSA-1 (sarcoma tissue)",0.11 µg/mL
same,IC50,"[3]; Table 6, read-out: IC50 Sarcoma tissue (SJSA-1)",0.11 µg/mL
same,IC50,"[4]; Table 1, read-out: IC50 A549 (non-small cell lung cancer)",0.11 µg/mL
same,IC50,"[4]; Table 6, read-out: IC50 Non-small cell lung cancer tissue (A549)",0.11 µg/mL
same,Mouse weight (%),[5]; [15],+17%
same,SJSA-1 (sarcoma) Growth rate (%),[5]; [15],798.05%
same,Mouse weight (%),[5]; [16],+17%
same,SJSA-1 (sarcoma tissue) growth rate (%),[5]; [16],798.05%
same,Mouse weight (%),[6]; [17],+35%
same,colo320 (colorectal cancer cell) growth rate (%),[6]; [17],815.39%
same,Mouse weight (%),[6]; [18],+35%
same,colo320 (colorectal cancer cell) growth rate (%),[6]; [18],815.39%
same,Mouse weight (%),[6]; [19],+35%
same,colo320 (colorectal cancer cell) growth rate (%),[6]; [19],815.39%
same,Mouse weight (%),[6]; [20],+35%
same,colo320 (colorectal cancer cell) growth rate (%),[6]; [20],815.39%
same,MTD,"[7]; female, mouse, in vivo, 'around', read-out: MTD (as stated in dosage instructions)",~70 mg/kg
same,MTD,"[7]; female, mouse, in vivo, Table 15 (Example 44), mice, six per group, monitored for 14 d, read-out: MTD",75 mg/kg
same,MTD,"[7]; female, mouse, in vivo, mice, monitored for 14 d, Table 4, read-out: MTD",75 mg/kg
same,MTD,"[7]; female, mouse, in vivo, mice, monitored for 14 d, Table 9, read-out: MTD",75 mg/kg
same,IC50,"[8]; Homo sapiens, COLO 320",0.11 µg/mL
